In US6610735B2, “Method, compositions and kits for increasing the oral bioavailability of pharmaceutical agents” (Baker Norton Pharmaceuticals, Inc., priority 1995, dated 2003):

What was measured:
[1] = Whole blood radioactivity of 3H-etoposide with/without oral cyclosporin (Example 6, NP960102); type: in vivo, rats; conditions: Grp C: CsA 5/PO, then Etoposide 1/PO + CsA 5/PO
[2] = Whole blood radioactivity of oral 3H-etoposide with oral ketoconazole (Example 7, NP960501); type: in vivo, rats; conditions: ketoconazole 2, 10, 50 mg/kg oral
[3] = system: highly resistant human KB carcinoma cells; conditions: cited from earlier work
[4] = male, Sprague-Dawley, rat, in vivo
[5] = rat, in vivo, iv
[6] = rat, in vivo, po
[7] = Total radioactivity and unchanged paclitaxel pharmacokinetics, rats n = 10 (Tables 5A, 5B)
[8] = in vivo, po; cited from earlier work
[9] = Whole blood and urine radioactivity after radiolabeled paclitaxel with/without cyclosporin (Example 3)
[10] = Serum paclitaxel after IV or oral paclitaxel with/without oral cyclosporin (Example 1); type: in vivo, Sprague Dawley rats

COc1cc([C@@H]2c3cc4c(cc3[C@@H](O[C@@H]3O[C@@H]5CO[C@@H](C)O[C@H]5[C@H](O)[C@H]3O)[C@H]3COC(=O)[C@H]23)OCO4)cc(OC)c1O [Etoposide, etoposide]
F% [1]: about 96%

CC(=O)N1CCN(c2ccc(OCC3COC(Cn4ccnc4)(c4ccc(Cl)cc4Cl)O3)cc2)CC1 (centres unmarked) [Ketoconazole, ketoconazole]
effect on oral absorption of etoposide compared to etoposide alone [2]: did not enhance the oral absorption of etoposide
reversal of MDR [3]: reverse MDR
dose-response of oral absorption of radioactivity [4]: no further increase in oral absorption of radioactivity

CC(=O)O[C@H]1C(=O)[C@@]2(C)[C@H]([C@H](OC(=O)c3ccccc3)[C@]3(O)C[C@H](OC(=O)[C@H](O)[C@@H](NC(=O)c4ccccc4)c4ccccc4)C(C)=C1C3(C)C)[C@]1(OC(C)=O)CO[C@@H]1C[C@@H]2O [Paclitaxel, paclitaxel]
% Dose in urine (4-24 hr) [5]: 2.2 % Dose
F (%) Based on AUC0-00, total radioactivity [6]: 16.4%
AUC0-24hr, unchanged paclitaxel ([7]; PO + CsA): 4270 ng·h/mL
AUC0-[…], unchanged paclitaxel ([7]; PO + CsA): 5410 ng·h/mL
AUC0-[…], unchanged paclitaxel ([7]; PO Dose): 349 ng·h/mL
AUC0-24hr, unchanged paclitaxel ([7]; PO Dose 9 mg/kg): 314 ng·h/mL
AUC0-00, total radioactivity ([7]; Paclitaxel Oral 9 mg/kg): 4.5 μg equiv.hr/mL
AUC0-24hr, total radioactivity ([7]; Paclitaxel Oral 9 mg/kg): 1.4 μg equiv.hr/mL
AUC0-00, total radioactivity ([7]; Paclitaxel Oral + CsA): 15.0 μg equiv.hr/mL
AUC0-24hr, total radioactivity ([7]; Paclitaxel Oral + CsA 5 mg/kg 1 hr prior to and concomitantly): 8.1 μg equiv.hr/mL
absorbed when administered orally [8]: less than 1%
AUC0-24, total radioactivity in blood ([9]; PO (B)): 3.2 μg eq × hr/ml
Tmax ([9]; PO (B) column as printed): 25 h
AUC0-24, total radioactivity in blood ([9]; PO+CsA (C), CsA 1 hr prior to and simultaneously): 12.1 μg eq × hr/ml
bioavailability of the paclitaxel in serum ([10]; oral paclitaxel in the absence of cyclosporin): less than 1%
bioavailability of the paclitaxel in serum ([10]; third group: cyclosporin 1 h prior to and with oral paclitaxel): 6-7%
